Here are results for 2 compounds from ChEMBL document CHEMBL3091442, “Synthesis and antitumor activity evaluation of maleopimaric acid N-aryl imide atropisomers” (Bioorg Med Chem Lett, 2013).

One test concerns MGC-803. Put plainly: Cytotoxicity against human MGC803 cells after 72 hrs by MTT assay. The test is classed as functional, cell-based. To be noted: MGC-803, 72 h. (Tetrazolium assays rely on reduction of a dye to a coloured formazan, in cell work by metabolically active cells.)
The test system of the next test is HepG2. Put plainly: Cytotoxicity against human HepG2 cells after 72 hrs by MTT assay. The class given is functional, cell-based. To be noted: HepG2, 72 h.
The test system of a further test is HCT-116. Put plainly: Cytotoxicity against human HCT116 cells after 72 hrs by MTT assay. The class given is functional, cell-based. The settings on record: HCT-116, 72 h.
In another test the test system is A549. Put plainly: Cytotoxicity against human A549 cells after 72 hrs by MTT assay. The class given is functional, cell-based. The settings on record: A549, 72 h.
Test [1] relates to NCI-H460. Put plainly: Cytotoxicity against human NCI-H460 cells after 72 hrs by MTT assay. The test is classed as functional, cell-based. To be noted: NCI-H460, 72 h.
The subject of test [2] is NCI-H460. Put plainly: Induction of apoptosis in human NCI-H460 cells assessed as late apoptotic cells at 45 uM after 24 hrs by Annexin V-FITC/propidium iodide staining-based flow cytometry (reference value: 0.8%). The test is classed as functional. (Flow cytometry measures light scatter and fluorescence of single cells or particles in a stream.)
The subject of test [3] is NCI-H460. Put plainly: Induction of apoptosis in human NCI-H460 cells assessed as early apoptotic cells at 45 uM after 24 hrs by Annexin V-FITC/propidium iodide staining-based flow cytometry (reference value: 1.5%). The class given is functional.
Test [4] deals with NCI-H460. Put plainly: Cell cycle arrest in human NCI-H460 cells assessed as accumulation at diploid S phase at IC50 after 48 hrs by propidium iodide staining-based FACS analysis (reference value: 23.27%). The test is classed as functional.
In test [5] the test system is NCI-H460. Put plainly: Cell cycle arrest in human NCI-H460 cells assessed as accumulation at diploid G2 phase at IC50 after 48 hrs by propidium iodide staining-based FACS analysis (reference value: 8.14%). The test is classed as functional.
In test [6] the test system is NCI-H460. Put plainly: Cell cycle arrest in human NCI-H460 cells assessed as accumulation at diploid G1 phase at IC50 after 48 hrs by propidium iodide staining-based FACS analysis (reference value: 68.60%). The test is classed as functional.

A word on the IC50: it is the midpoint of a concentration-inhibition curve. With `CC(C)C1=C[C@]23CC[C@@H]4[C@](C)(CCC[C@@]4(C)C(=O)O)[C@H]2C[C@H]1[C@H]1C(=O)OC(=O)[C@H]13`, the IC50 was 61.8 µM in the test with MGC-803; more than 100 µM in the test with HepG2; 98.7 µM in the test with HCT-116; 81.2 µM in the test on A549; more than 100 µM with NCI-H460 [1].

Regarding `O=c1[nH]cc(F)c(=O)[nH]1` [FLUOROURACIL], the Activity in the test on NCI-H460 [2] worked out at 6.5%; with NCI-H460 [3], 16.8%; in the test on NCI-H460 [4], 28.07%; in the test with NCI-H460 [5], 0%; with NCI-H460 [6], 71.93%. In addition, the IC50 came out at 15.3 µM with MGC-803; 19.4 µM in the test on HepG2; 8.32 µM in the test on HCT-116; 20.1 µM with A549; 23.3 µM in the test on NCI-H460 [1].
